From the NIST ThermoML archive (doi:10.1016/j.fluid.2017.09.014)

Experiment: xn = mol fraction of the nth substance listed
Details: Vibrating tube method

O=S=O [sulfur dioxide] + O=C=O
Details	mass density [kg/m3]
283.32 K, 5506 kPa, Liquid, x2 = 0.9503	916.4
283.32 K, 6002 kPa, Liquid, x2 = 0.9503	920.8
283.32 K, 6507 kPa, Liquid, x2 = 0.9503	925.6
283.32 K, 7000 kPa, Liquid, x2 = 0.9503	929.5
283.32 K, 7506 kPa, Liquid, x2 = 0.9503	934.7
283.32 K, 8008 kPa, Liquid, x2 = 0.9503	938.7
283.32 K, 9510 kPa, Liquid, x2 = 0.9503	949.7
283.32 K, 9995 kPa, Liquid, x2 = 0.9503	953.3
283.32 K, 10507 kPa, Liquid, x2 = 0.9503	956.6
283.32 K, 11007 kPa, Liquid, x2 = 0.9503	959.9
283.32 K, 12009 kPa, Liquid, x2 = 0.9503	966.2
283.32 K, 12514 kPa, Liquid, x2 = 0.9503	969.7
283.32 K, 13000 kPa, Liquid, x2 = 0.9503	972.6
283.32 K, 13536 kPa, Liquid, x2 = 0.9503	975.3
283.32 K, 14496 kPa, Liquid, x2 = 0.9503	980.8
283.32 K, 15011 kPa, Liquid, x2 = 0.9503	984.1
283.32 K, 15505 kPa, Liquid, x2 = 0.9503	986.8
283.32 K, 16044 kPa, Liquid, x2 = 0.9503	989.5
283.32 K, 16561 kPa, Liquid, x2 = 0.9503	992.4
283.32 K, 17047 kPa, Liquid, x2 = 0.9503	994.7
283.32 K, 17551 kPa, Liquid, x2 = 0.9503	996.8
283.32 K, 18520 kPa, Liquid, x2 = 0.9503	1001.7
283.32 K, 19016 kPa, Liquid, x2 = 0.9503	1004.1
283.32 K, 19496 kPa, Liquid, x2 = 0.9503	1006.2
283.32 K, 20038 kPa, Liquid, x2 = 0.9503	1008.7
283.32 K, 20507 kPa, Liquid, x2 = 0.9503	1011
283.32 K, 21035 kPa, Liquid, x2 = 0.9503	1013.2
283.32 K, 21504 kPa, Liquid, x2 = 0.9503	1015.3
283.32 K, 22046 kPa, Liquid, x2 = 0.9503	1017.6
283.32 K, 22565 kPa, Liquid, x2 = 0.9503	1019.8
283.32 K, 23052 kPa, Liquid, x2 = 0.9503	1021.8
283.32 K, 23509 kPa, Liquid, x2 = 0.9503	1023.3
283.32 K, 24535 kPa, Liquid, x2 = 0.9503	1027.4
283.32 K, 25025 kPa, Liquid, x2 = 0.9503	1029.4
283.32 K, 25509 kPa, Liquid, x2 = 0.9503	1031.3
283.32 K, 26038 kPa, Liquid, x2 = 0.9503	1033.5
283.32 K, 26503 kPa, Liquid, x2 = 0.9503	1034.9
283.32 K, 27023 kPa, Liquid, x2 = 0.9503	1037
283.32 K, 28043 kPa, Liquid, x2 = 0.9503	1040.7
283.32 K, 28527 kPa, Liquid, x2 = 0.9503	1042.4
283.32 K, 29081 kPa, Liquid, x2 = 0.9503	1044.1
283.32 K, 29470 kPa, Liquid, x2 = 0.9503	1045.7
283.32 K, 30008 kPa, Liquid, x2 = 0.9503	1047.3
283.32 K, 30506 kPa, Liquid, x2 = 0.9503	1049.6
283.32 K, 31007 kPa, Liquid, x2 = 0.9503	1050.9
283.32 K, 31500 kPa, Liquid, x2 = 0.9503	1052.8
283.32 K, 32033 kPa, Liquid, x2 = 0.9503	1054.6
283.32 K, 32516 kPa, Liquid, x2 = 0.9503	1056.2
283.32 K, 33032 kPa, Liquid, x2 = 0.9503	1057.9
283.32 K, 33527 kPa, Liquid, x2 = 0.9503	1059.6
283.32 K, 33995 kPa, Liquid, x2 = 0.9503	1060.8
283.32 K, 34989 kPa, Liquid, x2 = 0.9503	1064.3
283.32 K, 37026 kPa, Liquid, x2 = 0.9503	1070.5
283.32 K, 38461 kPa, Liquid, x2 = 0.9503	1074.6
283.32 K, 39056 kPa, Liquid, x2 = 0.9503	1076.1
283.32 K, 39558 kPa, Liquid, x2 = 0.9503	1077.4
283.32 K, 40729 kPa, Liquid, x2 = 0.9503	1080.4
283.33 K, 4307 kPa, Liquid, x2 = 0.9503	902.3
283.33 K, 4499 kPa, Liquid, x2 = 0.9503	904.4
283.33 K, 8543 kPa, Liquid, x2 = 0.9503	942.8
283.33 K, 9019 kPa, Liquid, x2 = 0.9503	946.2
283.33 K, 11512 kPa, Liquid, x2 = 0.9503	963
283.33 K, 14003 kPa, Liquid, x2 = 0.9503	978.2
283.33 K, 18078 kPa, Liquid, x2 = 0.9503	999.5
283.33 K, 24074 kPa, Liquid, x2 = 0.9503	1025.3
283.33 K, 40145 kPa, Liquid, x2 = 0.9503	1078.8
283.33 K, 40601 kPa, Liquid, x2 = 0.9503	1080.3
283.33 K, 40700 kPa, Liquid, x2 = 0.9503	1080.6
297.4 K, 4803 kPa, Gas, x2 = 0.9478	134.4
297.41 K, 100 kPa, Gas, x2 = 0.9478	1.8
297.41 K, 200 kPa, Gas, x2 = 0.9478	3.6
297.41 K, 2012 kPa, Gas, x2 = 0.9478	42.1
297.41 K, 2215 kPa, Gas, x2 = 0.9478	47.2
297.42 K, 51 kPa, Gas, x2 = 0.9478	1
297.42 K, 397 kPa, Gas, x2 = 0.9478	7.5
297.42 K, 502 kPa, Gas, x2 = 0.9478	9.4
297.42 K, 1817 kPa, Gas, x2 = 0.9478	37.6
297.42 K, 2421 kPa, Gas, x2 = 0.9478	53
297.42 K, 2588 kPa, Gas, x2 = 0.9478	57
297.42 K, 2854 kPa, Gas, x2 = 0.9478	64.1
297.42 K, 3638 kPa, Gas, x2 = 0.9478	87.4
297.42 K, 3822 kPa, Gas, x2 = 0.9478	93.7
297.42 K, 3996 kPa, Gas, x2 = 0.9478	99.9
297.42 K, 4401 kPa, Gas, x2 = 0.9478	115.6
297.42 K, 4507 kPa, Gas, x2 = 0.9478	120.1
297.42 K, 4600 kPa, Gas, x2 = 0.9478	124.4
297.42 K, 4703 kPa, Gas, x2 = 0.9478	129.2
297.43 K, 3223 kPa, Gas, x2 = 0.9478	74.6
297.43 K, 3396 kPa, Gas, x2 = 0.9478	79.8
297.43 K, 4206 kPa, Gas, x2 = 0.9478	107.7
297.44 K, 3064 kPa, Gas, x2 = 0.9478	70.1
298.09 K, 26076 kPa, Liquid, x2 = 0.9478	980
298.09 K, 26503 kPa, Liquid, x2 = 0.9478	982.1
298.1 K, 7001 kPa, Liquid, x2 = 0.9478	819.7
298.1 K, 9007 kPa, Liquid, x2 = 0.9478	854
298.1 K, 21016 kPa, Liquid, x2 = 0.9478	954.5
298.1 K, 21994 kPa, Liquid, x2 = 0.9478	959.8
298.1 K, 22537 kPa, Liquid, x2 = 0.9478	962.6
298.1 K, 23522 kPa, Liquid, x2 = 0.9478	967.7
298.1 K, 24029 kPa, Liquid, x2 = 0.9478	970.2
298.1 K, 24505 kPa, Liquid, x2 = 0.9478	972.6
298.1 K, 25050 kPa, Liquid, x2 = 0.9478	975.1
298.1 K, 25593 kPa, Liquid, x2 = 0.9478	977.9
298.1 K, 27025 kPa, Liquid, x2 = 0.9478	984.3
298.1 K, 27508 kPa, Liquid, x2 = 0.9478	986.6
298.1 K, 27973 kPa, Liquid, x2 = 0.9478	988.6
298.1 K, 28400 kPa, Liquid, x2 = 0.9478	990.6
298.1 K, 32016 kPa, Liquid, x2 = 0.9478	1004.6
298.1 K, 32518 kPa, Liquid, x2 = 0.9478	1006.5
298.1 K, 33068 kPa, Liquid, x2 = 0.9478	1008.6
298.1 K, 33435 kPa, Liquid, x2 = 0.9478	1009.8
